Experimental data from patent US4672036A, “Pure cultures of Kibdelsporangium aridum Shearer gen. nov., sp. nov. ATCC 39323 and mutants thereof” (SmithKline Beckman Corporation, priority 1985, dated 1987).
Values after ≈ are worked out from the molar mass of the structure shown. Values joined by “and” are separate entries in the source; they are usually repeats but may differ in a detail not shown here. Equal entries are not always repeated. Where two headings read alike, the source gives them in different places.

Columns and labels:
[1] = system: Staph. aureus HH127; type: cell-based; settings: Staphylococcus aureus
[2] = system: Strep. faecilis HH34358; type: cell-based
[3] = system: Proteus mirabilis SK & F 444; type: cell-based; settings: Proteus mirabilis
[4] = system: Kleb. pneumoniae 4200 (SK & F 798); type: cell-based; settings: Klebsiella pneumoniae
[5] = system: Serratia marcesens ATCC 13880; type: cell-based; settings: Serratia, ATCC13880
[6] = system: Proteus morgani SK & F 179; type: cell-based
[7] = system: Providencia SK & F 276; type: cell-based; settings: Providencia
[8] = system: Enterobacter cloacae HH31254; type: cell-based; settings: Enterobacter cloacae, HH31254
[9] = system: Staph. epidermidis SK & F 2479; type: cell-based; settings: Staphylococcus epidermidis
[10] = system: Listeria monocytogenes SK & F 2255; type: cell-based; settings: Listeria monocytogenes
[11] = system: Staph. epidermidis SK & F 651; type: cell-based; settings: Staphylococcus epidermidis
[12] = system: Staph. aureus SK & F 674; type: cell-based
[13] = system: Staph. aureus SK & F 1761; type: cell-based; settings: Staphylococcus aureus
[14] = system: Staph. aureus SK & F 2593; type: cell-based; settings: Staphylococcus aureus
[15] = system: Staph. aureus SK & F 2666; type: cell-based; settings: Staphylococcus aureus
[16] = system: Staph. aureus SK & F 2677; type: cell-based; settings: Staphylococcus aureus
[17] = system: Staph. aureus SK & F 2678; type: cell-based; settings: Staphylococcus aureus
[18] = system: Staph. aureus SK & F 2680; type: cell-based; settings: Staphylococcus aureus
[19] = system: Staph. aureus SK & F 2736; type: cell-based; settings: Staphylococcus aureus
[20] = system: Staph. aureus SK & F 2776; type: cell-based; settings: Staphylococcus aureus
[21] = system: Staph. aureus SK & F 2613; type: cell-based; settings: Staphylococcus aureus
[22] = system: Staph. aureus SK & F 675; type: cell-based; settings: Staphylococcus aureus
[23] = system: Staph. aureus SK & F 2612; type: cell-based; settings: Staphylococcus aureus
[24] = system: Staph. aureus SK & F 2614; type: cell-based; settings: Staphylococcus aureus
[25] = system: Staph. aureus SK & F 2620; type: cell-based; settings: Staphylococcus aureus
[26] = system: Staph. aureus SK & F 2621; type: cell-based; settings: Staphylococcus aureus
[27] = system: Staph. aureus SK & F 2594; type: cell-based; settings: Staphylococcus aureus
[28] = system: Staph. aureus SK & F 2589; type: cell-based; settings: Staphylococcus aureus
[29] = system: Staph. aureus SK & F 2591; type: cell-based; settings: Staphylococcus aureus
[30] = system: Staph. aureus SK & F 2592; type: cell-based; settings: Staphylococcus aureus
[31] = system: Staph. aureus SK & F 2595; type: cell-based; settings: Staphylococcus aureus
[32] = system: Staph. aureus SK & F 2597; type: cell-based; settings: Staphylococcus aureus
[33] = system: B. fragilis H145; type: cell-based, Bacteroides fragilis; settings: Bacteroides fragilis, H145
[34] = system: B. fragilis SK & F 3060; type: cell-based, Bacteroides fragilis; settings: Bacteroides fragilis
[35] = system: B. thetaiotamicron SK & F 3089; type: cell-based
[36] = system: Fusobacterium nucleatum ATCC 25586; type: cell-based; settings: Fusobacterium nucleatum, ATCC25586
[37] = system: Staph. aureus 209P-Mutant; experiment: microbe, parasite or virus in culture; type: cell-based; settings: Staphylococcus aureus, 209P
[38] = system: Staph. epidermidis SK & F 2683; type: cell-based; settings: Staphylococcus epidermidis
[39] = system: Strep. faecalis SK & F 657; type: cell-based; settings: Enterococcus faecalis
[40] = system: Swine in vitro model; experiment: swine in vitro model (growth promotant activity)
[41] = system: rumen in vitro model; experiment: rumen in vitro model (growth promotant activity); design: species or system steer
[42] = system: Staph. aureus HH 127; experiment: animal or person; settings: Staphylococcus aureus, HH127, in Mus musculus
[43] = system: Salmonella gallinarum BC595; experiment: microbe, parasite or virus in culture; settings: Salmonella enterica
[44] = system: Clostridium perfringens MCP-1; experiment: microbe, parasite or virus in culture; settings: MCP1

For `CN[C@H](CC(C)C)C(=O)N[C@H]1C(=O)N[C@@H](CC(N)=O)C(=O)N[C@H]2C(=O)N[C@H]3C(=O)N[C@H](C(=O)N[C@H](C(=O)O)c4cc(O)cc(O)c4-c4cc3ccc4O)[C@H](O)c3ccc(c(Cl)c3)Oc3cc2cc(c3O[C@@H]2O[C@H](CO)[C@@H](O)[C@H](O)[C@H]2O[C@H]2C[C@](C)(N)[C@H](O)[C@H](C)O2)Oc2ccc(cc2Cl)[C@H]1O` [Vancomycin, reference compound], the MIC ([1]; HH127, Table A) was 1.6 µg/mL (≈ 1.1 µM), the MIC ([1]; HH127, Table B, Methicillin Sensitive) was 1.6 µg/mL (≈ 1.1 µM) and the MIC ([1]; HH127, Table E) was 3.1 µg/mL (≈ 2.14 µM). It also gave an MIC [2] of 3.1 µg/mL (≈ 2.14 µM), an MIC ([2]; Enterococcus faecalis, HH34358) of 6.3 µg/mL (≈ 4.35 µM) and an MIC [3] of 100 µg/mL (≈ 69 µM). It also gave an MIC [4] of over 100 µg/mL, an MIC [5] of over 100 µg/mL and an MIC [6] of over 100 µg/mL. For the same molecule, the MIC [7] was over 100 µg/mL, the MIC [8] was over 100 µg/mL and the MIC ([9]; Table A) was 1.6 µg/mL (≈ 1.1 µM). It also gave an MIC ([9]; Table E) of 6.3 µg/mL (≈ 4.35 µM), an MIC ([10]; Table A) of 1.6 µg/mL (≈ 1.1 µM) and an MIC ([10]; Table E) of 3.1 µg/mL (≈ 2.14 µM). For the same molecule, the MIC ([11]; Table A) was 1.6 µg/mL (≈ 1.1 µM), the MIC ([11]; Table E) was 6.3 µg/mL (≈ 4.35 µM) and the MIC ([12]; Staphylococcus aureus) was 1.6 µg/mL (≈ 1.1 µM). For the same molecule, the MIC ([12]; Table E) was 1.6 µg/mL (≈ 1.1 µM), the MIC [13] was 1.6 µg/mL (≈ 1.1 µM) and the MIC [14] was 1.6 µg/mL (≈ 1.1 µM). It also gave an MIC [15] of 1.6 µg/mL (≈ 1.1 µM), an MIC [16] of 1.6 µg/mL (≈ 1.1 µM) and an MIC [17] of 1.6 µg/mL (≈ 1.1 µM). The MIC [18] was 1.6 µg/mL (≈ 1.1 µM), the MIC [19] was 1.6 µg/mL (≈ 1.1 µM) and the MIC [20] was 1.6 µg/mL (≈ 1.1 µM). For the same molecule, the MIC [21] was 1.6 µg/mL (≈ 1.1 µM), the MIC ([22]; Table C, Methicillin Resistant) was 1.6 µg/mL (≈ 1.1 µM) and the MIC ([22]; Table E) was 3.1 µg/mL (≈ 2.14 µM). For the same molecule, the MIC [23] was 1.6 µg/mL (≈ 1.1 µM), the MIC [24] was 1.6 µg/mL (≈ 1.1 µM) and the MIC [25] was 3.1 µg/mL (≈ 2.14 µM). It also gave an MIC [26] of 1.6 µg/mL (≈ 1.1 µM), an MIC [27] of 1.6 µg/mL (≈ 1.1 µM) and an MIC [28] of 1.6 µg/mL (≈ 1.1 µM). For the same molecule, the MIC [29] was 1.6 µg/mL (≈ 1.1 µM), the MIC [30] was 3.1 µg/mL (≈ 2.14 µM) and the MIC [31] was about 1.6 µg/mL (≈ 1.1 µM). The MIC [32] was 3.1 µg/mL (≈ 2.14 µM), the MIC [33] was 32 µg/mL (≈ 22.1 µM) and the MIC [34] was 32 µg/mL (≈ 22.1 µM). It also gave an MIC [35] of 32 µg/mL (≈ 22.1 µM), an MIC [36] of 32 µg/mL (≈ 22.1 µM) and an MIC [37] of over 100 µg/mL. The MIC [38] was 6.3 µg/mL (≈ 4.35 µM), the MIC [39] was 3.1 µg/mL (≈ 2.14 µM) and the “GLU (glucose)” value [40] was 190 % Control and 189 % Control. For the same molecule, the “LAC (L-lactic acid)” value [40] was 64 % Control and 59 % Control, the “LYS (lysine)” value [40] was 48 % Control and 42 % Control and 83 % Control and the “LYS (lysine)” value [41] was 85 % Control and 83 % Control. The ED50 [42] was 1.76 mg/kg, the MIC ([43]; Table A) was 25 µg/mL (≈ 17.3 µM) and the MIC ([43]; Table E) was over 100 µg/mL. It also gave an MIC [44] of 0.5 µg/mL (≈ 0.345 µM).
